The values below come from patent US20230251260A1, “METHODS OF DETERMINING CANCER THERAPY” (YISSUM RESEARCH DEVELOPMENT COMPANY OF THE HEBREW …, priority 2020, published 2023).

In experiment [1] the test system is 4T1 cells. The experiment in a line: Survival assay (methylene blue) of irradiated 4T1 cells. Type of experiment: cell-based, mouse. Conditions: drugs with RT, beginning 2 days prior to RT until 6 days post-RT.
Experimental: Survival Analysis: Cells were seeded at 70% confluency and treated as needed for different timepoints. Cells were washed with PBS and fixed with 4% PFA for 10 min. at R.T. The fixed cells were stained with Methylene Blue (MB) for 1 hour at R.T., washed and air dried overnight. The color was extracted with 0.1M HCl for 1 hour at R.T. Absorbance was read at 630 nm.
For experiment [2], the system named is BR45 PDX. The experiment in a line: BR45 PDX in NSG mice treated by brachytherapy, tumor growth. It counts as in vivo, mouse. Conditions: pretreatment prior to brachytherapy RT (12 Gy and 10 Gy). The source says:
Mouse models: Syngeneic mouse model: 2.0×10^5 4T1 cells were inoculated subcutaneously on 6-7 weeks old female Balb/c mice. Allogeneic model: BR45 tumors were induced on NSG mice either by injecting 4.0×10^6 cells […] or subcutaneously transplanting xenografts. After reached the desired tumor volume (80-100 mm3), mice were randomly grouped to around 8-10 per cage and treatment were initialized. Tumor sizes were regularly measured with an electronic calliper every two days and their volumes were obtained using the formula V=(W (2)×L)/2. Mice were kept under conventional pathogen-free conditions. All in-vivo experiments were performed with approval of the Hebrew University of Jerusalem IACUC.
Tumor inoculation: 4T1 mouse breast carcinoma mimics stage IV triple negative breast cancer in human. It is highly metastatic to lungs, lymph nodes, liver and bones after implantation in the mammary fat pad of immune-competent Balb/c mice. Primary tumors were harvested after euthanizing female mice using carbon dioxide (CO2) inhalation. Time elapsed from tumor inoculation varied from 2 weeks to 1 month. […]
Drugs were given usually by IP or gavage depending on the drug. […] During this period the tumor volumes were measured regularly to observe the action of the drug. […]

With `C[C@@H](Oc1cc(-c2cnn(C3CCNCC3)c2)cnc1N)c1c(Cl)ccc(F)c1Cl` [Crizotinib], the “cell survival / sensitization of 4T1 cells to RT” value in experiment [1] was “significantly less effective in sensitizing the cells to RT”. Consider `C#Cc1cccc(Nc2ncnc3cc(OCCOC)c(OCCOC)cc23)c1` [erlotinib, Erlotinib], for which the “tumor growth, response to RT” value in experiment [2] is “did not improve the results of the treatment”.
